# Literature values as cited in patent publication US20220202844A1, “DRUG DELIVERY COMPOSITION AND A METHOD OF ADMINISTERING THE DRUG” (priority 2020, published 2022).
# Conditions: background statement
smiles,measurement,value
"NC(=O)c1ccc[n+]([C@@H]2O[C@H](COP(=O)([O-])OP(=O)(O)OC[C@H]3O[C@@H](n4cnc5c(N)ncnc54)[C@H](O)[C@@H]3O)[C@@H](O)[C@H]2O)c1 [NAD+, nicotinamide adenine dinucleotide]",aqueous solubility,50 mg/mL
